Assay results from patent US9631096B2, “Dye compositions, methods of preparation, conjugates thereof, and methods of use” (CORNELL UNIVERSITY, priority 2012, dated 2017).

Columns and labels:
[1] = Single-molecule FRET with donor and acceptor dyes on ribosomal proteins S13 and L1; assay type: physicochemical, E. coli; details: ribosome S13/L1 labels, 532 nm excitation, same day and conditions, FIG. 12
Source text: In this study, donor and acceptor fluorophores are attached to two ribosomal proteins (S13 small subunit; L1 large subunit, respectively).
Ribosomal protein S13 was PCR cloned from E. coli strain K12 genomic DNA into the pPROEX HTb vector with a TEV-protease-cleavable histidine (His)6 tag and a 12-residue peptide encoding the S6 epitope for the Sfp phosphopantetheinyl transferase reaction (amino acid sequence, [sequence]) fused at the N terminus (N-Sfp). {Yin, J., Lin, A. J., Golan, D. E. & Walsh, C. […] 1, 280-285 (2006)} After transformation of this plasmid into an E. coli ΔS13 knockout strain, cells were cultured and ribosomes were harvested as previously described. {Wang, L., Altman, R. B. & Blanchard, S. C. […]
Single-molecule FRET experiments were performed at room temperature in Tris-polymix with 5 mM Mg2+ buffer, as previously described {Wang, L., Altman, R. B. & Blanchard, S. C. […] The smFRET data were acquired by directly exciting the Cy3 fluorophore at 532 nm (LaserQuantum) while the Cy3 and Cy5 intensities were simultaneously recorded in Metamorph (Molecular Devices) with a 40-ms integration time. The data were analyzed in MATLAB (MathWorks) and plotted in Origin (OriginLab), as previously described. {Munro, J. B., Altman, R. B., O'Connor, N. & Blanchard, S. C.

[2] = Laser flash photolysis (time-resolved transient absorption) of Cy5 derivatives with benzophenone sensitizer; assay type: physicochemical; details: for lifetime of the 700 nm transient: acetonitrile, BP 5 mM, Cy5 22 μM
Source text: This experiment examined whether enhanced photostability of the Cy5 fluorophore, when covalently linked to protective agents (COT, NBA or Trolox) (Chart 1) can be specifically attributed to a triplet state quenching mechanism using laser flash photolysis (time-resolved transient absorption spectroscopy).
Because the formation of triplet states of Cy5 is inefficient (triplet quantum yield <0.003) upon direct excitation, a triplet sensitizer was employed to more efficiently populate the Cy5 triplet state (^3Cy5*) through an energy transfer mechanism (eq 1).
Deoxygenated acetonitrile solutions containing BP and Cy5 were irradiated with light pulses from a Nd-YAG laser at 355 nm (5 ns pulse width) to generate transient absorption kinetic traces across the visible spectrum. From these traces, transient absorption spectra at different times after the laser pulse were constructed (FIG. 3). Directly after the laser pulse the spectrum is dominated by the triplet absorption of BP, which is known to show a peak at 525 nm. […] Assignment of this new transient at 700 nm as the triplet state absorption of Cy5 was subsequently confirmed by performing quenching studies in the presence of a small amount of oxygen (0.45 mM; generated by bubbling the acetonitrile solution with a gas mixture of 5% O2 and 95% N2).
In addition to different protective agents (COT, NBA and Trolox), the length of the spacer between Cy5 and the protective agent was also varied. Laser flash photolysis experiments in argon-saturated acetonitrile solutions using BP as the sensitizer were performed on each of the Cy5 derivatives. […] The initial growth in transient absorption is caused by the energy transfer process from ^3BP* to the Cy5 chromophore analog in eq 1, which is then followed by the decay of the Cy5 triplet state. The concentrations of the Cy5 derivatives were optimized in order to ensure accurate triplet lifetime determination. […]

[3] = Single-molecule TIRF fluorescence imaging of dye-labeled duplex DNA (photostability); assay type: physicochemical
Procedure: Each DNA strand was individually labeled with a single, NHS-activated “self-healing” fluorophore and hybridized to a complementary strand. Purified duplexes were used for single-molecule experiments.
All experiments were performed using a laboratory built, prism-based TIRE apparatus. Biotinylated DNA molecules were immobilized via a biotin-streptavidin interaction within microfluidic channels constructed on quartz slides. Fluorescence from surface-immobilized molecules, illuminated via the evanescent wave generated by total internal reflection of a 640 nm laser source, was collected using a water-immersion objective and imaged onto a EMCCD camera. […]
The photophysical properties of fluorophores were analyzed using automated software built in-house using Matlab. To extract kinetic parameters of blinking and photobleaching, the fluorescence traces were normalized to the mean fluorescence intensity of each dataset and idealized using the SKM algorithm and a 3-state model with one fluorescent (on) state, a transient dark state (blinking) and a permanent dark state (photobleaching). Time on (τon) was calculated by fitting the cumulative distribution to an exponential function.
By tracking the fluorescence of individual molecules over time, the intensity and duration of fluorescence, as well as the kinetics of blinking and photobleaching could be quantified. […]

[4] = cited from earlier work

| SMILES | brightness and duration of donor and acceptor fluorescence / quality of FRET data [1] | τtriplet (triplet lifetime) ([2]; deoxygenated acetonitrile, BP sensitizer, 355 nm pulse, triplet absorption at 700 nm) | lifetime of the 700 nm transient ([2]; in the absence of O2 (argon purged)) | lifetime of the 700 nm transient ([2]; in the presence of O2 (0.45 mM; 5% O2/95% N2)) | time period of fluorescence before blinking or photobleaching (visual inspection of traces) ([3]; individual fluorescence traces, dye on double stranded DNA, 641 nm) | Average number of photons (10^4 photons) detected before photobleaching or blinking ([3]; single-molecule measurements, dye on duplex DNA, TIRF, 641 nm illumination, deoxygenated solution) | quantum yield ([4]; fluorescence) | triplet quantum yield ([4]; upon direct excitation) |
| --- | --- | --- | --- | --- | --- | --- | --- | --- |
| CCN1C(=CC=CC2=[N+](CCCCCC(=O)O)c3ccc(S(=O)(=O)O)cc3C2(C)C)C(C)(C)c2cc(S(=O)(=O)[O-])ccc21 [Cy3] | short-lived and are noisy and relatively difficult to analyze |  |  |  |  |  |  |  |
| CCN1/C(=C/C=C/C=C/C2=[N+](CCCCCC(=O)O)c3ccc(S(=O)(=O)O)cc3C2(C)C)C(C)(C)c2cc(S(=O)(=O)[O-])ccc21 [Cy5] | short-lived and are noisy and relatively difficult to analyze | 63 ± 3 μs | ~22 μs | 1.7 μs | shortest | 2.1 ± 0.1 10^4 photons | approximately 0.3 | < 0.003 |
